This is an account of results in patent publication US5508428A, “Spiro compound” (Daiichi Phamaceutical Co., Ltd., priority 1988, dated 1996).

What all share (type): cell-based
Assay [1] deals with E. coli, NIHJ. As to the kind of experiment: Antibacterial activity (MIC), E. coli NIHJ. The note with it: Escherichia coli. On the procedure:
(§1) The antibacterial activity assays were performed by the method specified by Japan Society of Chemotherapy (Chemotherapy 29(1), 76 (1981). The table of antibacterial activity is followed by the reaction schemes for the synthesis of various spiro ring-containing cyclic amine derivatives, intermediate compounds for synthesis of quinolone rings and synthesis of various spiro compounds.

Assay [2] has as its system S. flexneri, 2A 5503. As to the kind of experiment: Antibacterial activity (MIC), S. flexneri 2A 5503. The note with it: Shigella flexneri, 2A5503. As to the method:
as §1

Assay [3] relates to Pr. vulgaris, 08601. The assay can be described thus: Antibacterial activity (MIC), Pr. vulgaris 08601. The note with it: Proteus vulgaris. As to the method:
as §1

The test system of assay [4] is Pr. mirabillis, IF0-3849. The assay can be described thus: Antibacterial activity (MIC), Pr. mirabillis IF0-3849. On the procedure:
as §1

The subject of assay [5] is Ser. marcescens, 10100. The assay can be described thus: Antibacterial activity (MIC), Ser. marcescens 10100. To be noted: Serratia marcescens, 10100, Ser. marcescens. As to the method:
as §1

The subject of assay [6] is Ps. aeruginosa, 32104. As to the kind of experiment: Antibacterial activity (MIC), Ps. aeruginosa 32104. To be noted: Pseudomonas aeruginosa, 32104, Ps. aeruginosa. As to the method:
as §1

For assay [7], the system named is Ps. aeruginosa, 32121. As to the kind of experiment: Antibacterial activity (MIC), Ps. aeruginosa 32121. To be noted: Pseudomonas aeruginosa, 32121, Ps. aeruginosa. On the procedure:
as §1

Assay [8] has as its system Ps. maltophilia, IID-1275. As to the kind of experiment: Antibacterial activity (MIC), Ps. maltophilia IID-1275. The note with it: Stenotrophomonas maltophilia, IID1275, Ps. maltophilia. On the procedure:
as §1

Assay [9] deals with S. aureus, 209P. As to the kind of experiment: Antibacterial activity (MIC), S. aureus 209P. To be noted: Staphylococcus aureus. On the procedure:
as §1

For assay [10], the system named is S. epidermidis, 56500. As to the kind of experiment: Antibacterial activity (MIC), S. epidermidis 56500. The note with it: Staphylococcus epidermidis, 56500, S. epidermidis. As to the method: as §1
Assay [11] deals with Str. pyogenes, G-36. The assay can be described thus: Antibacterial activity (MIC), Str. pyogenes G-36. The note with it: Streptococcus pyogenes, G36, Str. pyogenes. As to the method: as §1
Assay [12] deals with Str. faecalis, ATCC-19433. The assay can be described thus: Antibacterial activity (MIC), Str. faecalis ATCC-19433. To be noted: Enterococcus faecalis, ATCC19433, Str. faecalis. On the procedure:
as §1

In brackets after ≈: the same amount, converted by molar mass. A value given as a limit tells only on which side of the number the result lay.

Broadly, the MIC is the smallest concentration in the dilution series that meets the test's criterion for growth inhibition. Consider `O=C(O)c1cn(C2CC2)c2cc(N3CCNC4(CC4)C3)c(F)cc2c1=O` [Compound 37, 1-Cyclopropyl-7-(4,7-diazaspiro[2.5]octan-7-yl)-6-fluoro-1,4-dihydro-4-oxoquinoline-3-carboxylic acid], for which the minimal inhibitory concentration (MIC) was not above 0.05 µg/mL in [1]; not above 0.05 µg/mL in assay [2]; not above 0.05 µg/mL in [3]; not above 0.05 µg/mL in assay [4]; 0.1 µg/mL (≈ 0.28 µM) in assay [5]; 0.2 µg/mL (≈ 0.56 µM) in [6]. Further, the MIC in assay [7] was found to be 0.2 µg/mL (≈ 0.56 µM); in assay [8], 0.39 µg/mL (≈ 1.09 µM); in assay [9] it was 0.2 µg/mL (≈ 0.56 µM); in [10] it was 0.39 µg/mL (≈ 1.09 µM); in assay [11], 0.78 µg/mL (≈ 2.18 µM); in [12], 0.78 µg/mL (≈ 2.18 µM).
Consider `CC(C)(C)n1cc(C(=O)O)c(=O)c2cc(F)c(N3CC(N)C4(CC4)C3)nc21` (stereo not drawn) [Compound 41b, 7-(7-Amino-5-azaspiro[2.4]heptan-5-yl)-1,4-dihydro-6-fluoro-1-(2-methyl-2-propyl)-4-oxo-1,8-naphthyridine-3-carboxylic acid], for which the minimum inhibitory concentration (MIC) in [1] is not above 0.05 µg/mL; in assay [2] it was not above 0.05 µg/mL; in [3] it was 0.1 µg/mL (≈ 0.267 µM); in assay [4], 0.2 µg/mL (≈ 0.534 µM); in [5], 0.1 µg/mL (≈ 0.267 µM); in [6], 0.2 µg/mL (≈ 0.534 µM). Moreover, the MIC in assay [7] was 0.1 µg/mL (≈ 0.267 µM); in assay [8] it was 0.1 µg/mL (≈ 0.267 µM); in assay [9], not above 0.05 µg/mL; in assay [10], 0.1 µg/mL (≈ 0.267 µM); in assay [11] it was 0.39 µg/mL (≈ 1.04 µM); in assay [12] it was 0.2 µg/mL (≈ 0.534 µM).
Consider `O=C(O)c1cn(C2CC2)c2c(Cl)c(N3CC(O)C4(CC4)C3)c(F)cc2c1=O` (stereo not drawn) [Compound 39, 7-(7-Hydroxy-5-azaspiro[2.4]heptan-5-yl)-8-chloro-1-cyclopropyl-6-fluoro-1,4-dihydro-4-oxoquinoline-3-carboxylic acid], for which the minimum inhibitory concentration (MIC) in assay [1] was not above 0.05 µg/mL; in [2] it was not above 0.05 µg/mL; in assay [3] it was not above 0.05 µg/mL; in assay [4] it was 0.2 µg/mL (≈ 0.509 µM); in assay [5], 0.39 µg/mL (≈ 0.993 µM); in assay [6], 1.56 µg/mL (≈ 3.97 µM). Besides, the minimum inhibitory concentration (MIC) was 0.39 µg/mL (≈ 0.993 µM) in assay [7]; not above 0.05 µg/mL in assay [8]; not above 0.05 µg/mL in assay [9]; not above 0.05 µg/mL in assay [10]; 0.39 µg/mL (≈ 0.993 µM) in assay [11]; 0.39 µg/mL (≈ 0.993 µM) in [12].
Take `NC1CN(c2cc3c(cc2F)c(=O)c(C(=O)O)cn3C2CC2)CC12CC2` (racemic) [Compound 33, 7-(7-Amino-5-azaspiro[2.4]heptan-5-yl)-1-cyclopropyl-6-fluoro-1,4-dihydro-4-oxoquinoline-3-carboxylic Acid]: the MIC in assay [1] is not above 0.05 µg/mL; in [2], not above 0.05 µg/mL; in assay [3] it was not above 0.05 µg/mL; in assay [4] it was not above 0.05 µg/mL; in assay [5], 0.1 µg/mL (≈ 0.28 µM); in assay [6], 0.1 µg/mL (≈ 0.28 µM). Besides, the MIC was not above 0.05 µg/mL in assay [7]; 0.1 µg/mL (≈ 0.28 µM) in assay [8]; not above 0.05 µg/mL in [9]; 0.2 µg/mL (≈ 0.56 µM) in assay [10]; 0.39 µg/mL (≈ 1.09 µM) in [11]; 0.39 µg/mL (≈ 1.09 µM) in assay [12].
For `NC1CN(c2c(F)cc3c(=O)c(C(=O)O)cn(C4CC4)c3c2Cl)CC12CC2` (racemic) [Compound 32, 7-(7-Amino-5-azaspiro[2.4]heptan-5-yl)-8-chloro-1-cyclopropyl-6-fluoro-1,4-dihydro-4-oxoquinoline-3-carboxylic Acid], the minimum inhibitory concentration (MIC) in [1] is not above 0.05 µg/mL; in assay [2], not above 0.05 µg/mL; in [3] it was not above 0.05 µg/mL; in [4], not above 0.05 µg/mL; in assay [5], not above 0.05 µg/mL; in assay [6], 0.1 µg/mL (≈ 0.255 µM). For the same molecule, the MIC in assay [7] was not above 0.05 µg/mL; in assay [8] it was not above 0.05 µg/mL; in assay [9] it was not above 0.05 µg/mL; in assay [10] it was 0.1 µg/mL (≈ 0.255 µM); in assay [11], 0.1 µg/mL (≈ 0.255 µM); in [12], 0.1 µg/mL (≈ 0.255 µM).
